This note sets out measurements from PMC13503280, “A pharmacological modality to sequester homomeric proteins” (Nature Chemical Biology, 2026).

The test system of data set [1] is Mino cells. Nature of the data set: Viability measurements, Mino cells. Format: cell-based. As to conditions: Mino, 72 h. The procedure:
(§1) Cells were seeded in a transparent-bottom, black 96-well plate, at 15,000 cells per well in sixfold replications. in 90 µl of medium and left to adhere for at least 4 h. The cells were then treated with the respective compound by adding 10 µl of medium–-compound mixture for a final volume of 100 µl in each well. Cell-Titer blue reagent was used to measure viability according to the manufacturer’s instructions. Plate reader measurements were performed on a Tecan Spark Control 10 M fluorescence system.

The test system of data set [2] is Ramos cells. Nature of the data set: Viability measurements, Ramos cells. Particulars: Ramos, 72 h. Type of data set: cell-based. The procedure:
as §1

Data set [3] has as its system HEK 293 cells. Nature of the data set: Viability measurements, HEK 293 cells. As to conditions: HEK 293, 72 h. Type of data set: cell-based. The procedure:
as §1

In data set [4] the test system is NQO1 expression. Nature of the data set: qPCR for NQO1 expression in OCI-AML2 cells after washout. Format: cell-based. Particulars: OCI-AML2, 250 nM 20 h, from 48 h after treatment. The method, then: Cells were treated with either DMSO or compound at 250 nM, followed by washing out the treated medium after 20 h and reseeding in fresh medium. Cells were then collected at several time points post washout. Total RNA was extracted using RNeasy mini kit (Qiagen, 74104). […] PCR amplification was carried out in Step-One Plus thermocycler (Applied Biosystems). Relative quantification was performed using standard curves. GAPDH was used for normalization.

For data set [5], the target named is T1, recombinant Keap1 BTB (Homo sapiens, UniProt Q14145, S172A).
T1 construct: The Keap1 BTB domain (48–180) encoding the single substitution S172A was cloned into pET28-bdSumo vector; His–bdSumo (N, cleaved yes); made in house; host or cells: E. coli BL21(DE3)
Nature of the data set: DLS of recombinant Keap1 BTB domain. Type of data set: biochemical. Particulars: 50 μM Keap1 BTB, 50 μM compound, room temperature, over time. The procedure: (§2) DLS samples were prepared in the respective protein’s elution buffer, to which 0.01% Tween was added, along with the compound from a DMSO stock to obtain a final DMSO concentration of 2%. Samples were prepared at room temperature and measured at a constant temperature of 25 °C. All samples were passed through 0.1-μm filters and then placed in a clear-bottom black 384-well plate. DLS data were recorded using a DynaproPlate Reader III (Wyatt Technology). Data were processed with the supplied DYNAMICS software.

Data set [6] has as its system recombinant Keap1 BTB. Nature of the data set: DLS of recombinant Keap1 BTB domain. Type of data set: biochemical. Particulars: 50 µM protein, 50 µM compound. The method, then:
as §2

The subject of data set [7] is OCI-AML2 cells. Nature of the data set: Viability measurements, OCI-AML2 cells. Type of data set: cell-based. The procedure:
as §1

Data set [8] has as its system U2OS cells. Nature of the data set: Viability measurements, U2OS cells. Format: cell-based. The method, then: as §1
The subject of data set [9] is RAS GTPase-activating protein-binding protein 1. Put plainly: Colocalization with RAS GTPase-activating protein-binding protein 1 (stress granules). Format: cell-based.
Data set [10] concerns the target T2, Keap1 (Homo sapiens, UniProt Q14145). Put plainly: WB of Keap1 in OCI-AML2 cells (soluble/insoluble phase). Type of data set: cell-based. Also on record: endogenous in cells; host or cells: OCI-AML2. The method, then:
Cells were incubated with DMSO at 0.1% or with compound in concentrations ranging 10–20,000 nM for 20 h unless indicated differently. Following incubation, lysis was performed in RIPA buffer and the samples were measured for total protein quantification by BCA assay (Thermo Fisher Scientific, 23225). Then, 20–40 μg of each sample was loaded and run on an SDS–PAGE gel, before transferring onto a nitrocellulose membrane using a Trans-Blot Turbo system (Bio-Rad) and blocking using a 5% BSA in TBS-T (w/v) solution for 1 h at room temperature. Incubation with primary antibodies (mouse anti-BCL-6 (sc-7388, Santa Cruz, 1:500; overnight at 4 °C), mouse anti-Keap1 (sc-365626, Santa Cruz, 1:500; overnight at 4 °C), rabbit anti-LDHA (4H18L6, Thermo Fisher, 1:1,000; overnight at 4 °C), mouse anti-NQO2 (sc-271665, Santa Cruz, 1:500; overnight at 4 °C), rabbit anti-c-Myc (5605, Cell Signaling, 1:1,000; overnight at 4 °C) and mouse anti-β-actin (3700, Cell Signaling, 1:1,000; 1 h at room temperature) was performed and then the membranes were washed and incubated with a horseradish-peroxidase-conjugated secondary antibody (mouse 7076/rabbit 7074, Cell Signaling) at room temperature for 1 h. Imaging of the chemiluminescence signal was performed using a ChemiDoc XRS+ instrument (Bio-Rad). Primary band quantifications were normalized against β-actin bands.

Data set [11] concerns the target T2, Keap1. Nature of the data set: Immunostaining of endogenous Keap1 puncta in U2OS cells. Particulars: 250 nM. Also on record: We visualized the subcellular localization of endogenous Keap1 following PINCH treatment by immunofluorescence in U2OS cells; endogenous in cells; host or cells: U2OS (ATCC HTB-96). Type of data set: cell-based. The procedure:
The cells were then blocked with 5% BSA for 60 min at room temperature. Cells were stained with primary antibody, at a concentration of 1:100, for 3 h at room temperature and were then subjected to a secondary antibody conjugated to Alexa Fluor, at a concentration of 1:100–500, for 1 h at room temperature. Lastly, cells were also stained with DAPI for 10 min at room temperature.
Imaging of the cells was performed using a Dragonfly spinning disk confocal system (Andor Technology) connected to an inverted Leica Dmi8 microscope (Leica Microsystems). The signals were detected using a scientific complementary metal–oxide–semiconductor Zyla (Andor) 2,048 × 2,048 camera and the bit depth was 16. At the specified intervals, Z stacks (0.17 µm) of selected cells were acquired with an HC PL APO ×63/1.3 GLYC CORR CS2 objective (506353, Leica Microsystems).
Automatic aggregate segmentation was conducted using the surface module with manual threshold fixed for all images of the same experiment (default 2-pixel smoothing, background subtraction with 0.9-μm largest sphere, morphological split with 0.5-μm seed point diameter). […]
Spots were considered colocalized if their centers were up to 1 μm apart. We manually segmented each cell in 3D using the Surface module and quantified the number percentage and the total puncta volume percentage of colocalized spots for each cell.

T2 sequence (Q14145 whole entry): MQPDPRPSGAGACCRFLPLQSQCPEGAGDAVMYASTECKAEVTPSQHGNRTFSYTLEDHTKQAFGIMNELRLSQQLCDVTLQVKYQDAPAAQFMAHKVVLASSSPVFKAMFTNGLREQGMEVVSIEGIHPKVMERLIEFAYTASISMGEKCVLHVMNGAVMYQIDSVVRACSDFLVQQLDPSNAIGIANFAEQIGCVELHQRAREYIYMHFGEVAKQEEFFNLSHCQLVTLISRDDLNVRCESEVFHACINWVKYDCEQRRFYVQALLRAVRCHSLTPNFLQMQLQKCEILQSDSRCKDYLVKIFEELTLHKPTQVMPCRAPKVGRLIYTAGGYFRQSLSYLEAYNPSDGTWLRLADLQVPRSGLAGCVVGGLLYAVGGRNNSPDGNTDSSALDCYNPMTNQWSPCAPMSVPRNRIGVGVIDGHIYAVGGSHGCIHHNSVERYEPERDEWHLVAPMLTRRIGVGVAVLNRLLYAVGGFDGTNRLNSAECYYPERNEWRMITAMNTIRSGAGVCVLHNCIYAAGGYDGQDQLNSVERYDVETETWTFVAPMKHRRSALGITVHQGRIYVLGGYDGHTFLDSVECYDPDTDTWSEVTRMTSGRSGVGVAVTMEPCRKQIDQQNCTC
T1 sequence (Q14145 48-180 S172A): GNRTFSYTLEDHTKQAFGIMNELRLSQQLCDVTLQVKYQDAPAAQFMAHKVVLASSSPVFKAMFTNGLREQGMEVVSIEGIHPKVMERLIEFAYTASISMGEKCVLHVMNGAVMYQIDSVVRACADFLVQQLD

By IC50 is commonly meant the concentration needed to halve the response being measured. A lower IC50 goes with higher potency. One may read the EC50 as the concentration that produces a half-maximal response. As for `CC1(C)CCC2(C(=O)NCCOCCOCCNC(=O)C34CCC(C)(C)CC3C3C(=O)C=C5C6(C)C=C(C#N)C(=O)C(C)(C)C6CCC5(C)C3(C)CC4)CCC3(C)C(C(=O)C=C4C5(C)C=C(C#N)C(=O)C(C)(C)C5CCC43C)C2C1` (stereo not shown) [EL133], the “additional viability loss compared with BDX” value in data set [1], in data set [2] and in [3] was “no additional viability loss” throughout. For the same compound, the “duration of NQO1 upregulation after washout” value in data set [4] is reported as “remained higher”. For the same compound, the “formation of large species (DLS)” value in [5] is reported as “large molecular species forming”. Moreover, in data set [6], the “formation of large species with WT versus C151S Keap1 BTB (DLS)” value is reported as “able to form large species in solution with the wild-type (WT) protein but not with the mutant”. The IC50 in data set [7] (Homo sapiens, OCI-AML2, 72 h) came out at 265 nM; in [8] (Homo sapiens, 72 h) it was 254 nM. In addition, the “difference in viability IC50 over BDX” value was “fourfold” in data set [7] (OCI-AML2) and “threefold” in data set [8]. The “formation of stress granules” value in [9] is listed as “does not induce the formation of its characteristic stress granules”. Besides, the “Keap1 in insoluble phase after washout (WB)” value in [10] (OCI-AML2, 500 nM EL133 or 2.5 µM EL256 for 20 h, then washout) is listed as “remained accumulated in the insoluble phase for up to the 96 h”. Further, the “rescue of Keap1 downregulation by MLN-4924 or bortezomib pretreatment” value in data set [10] (OCI-AML2, 1 h pretreatment, then compound 7 h) is on record as “did not rescue Keap1 downregulation”. Further, the “concentration at which Keap1 accumulates in the insoluble phase (as low as)” value in data set [10] (OCI-AML2 cells) came out at 500 nM. In addition, the EC50 in [10] (OCI-AML2 cells, 20 h treatment, read-out: EC50 (Keap1 downregulation, WB)) was found to be 102 nM. In addition, the “Keap1 puncta (immunofluorescence)” value in [11] is “bright punctate structures”.
